Experimental findings from patent US7638036B2, “Redox potential mediated carbon nanotubes biosensing in homogeneous format” (E. I. du Pont de Nemours and Company, priority 2004, dated 2009) are described below.

The subject of assay [1] is laccase Type I copper center. Put plainly: Laccase 600 nm absorbance peak on inhibitor binding. Also noted: species or system Trametes versicolor. The note with it: charge-transfer band of Type I copper center. From the text:
This conclusion was strengthened by the observation that the binding of tetrachloro-o-quinol to laccase caused a decrease in the amplitude of the laccase 600 nm absorbance peak, dominated by a charge-transfer band involving the Type I copper center and its cysteinyl ligand.

The test system of assay [2] is Trametes versicolor laccase. Put plainly: Laccase inhibitor evaluation: rate of ABTS^−2 oxidation at varied inhibitor and substrate concentrations (1/V versus [I] plots). It counts as biochemical. As to the method:
High potential quinones/quinols were screened to identify those with characteristics that would be suitable for use as an inhibitor of laccase, to be used in an activity switch.
Compounds were evaluated by varying the concentrations of inhibitor and substrate (ABTS^−2) and measuring under each condition the rate of ABTS^−2 oxidation. […] Tetrachloro-o-quinol and tetrafluoro-o-quinol, shown in Diagram I, had Kds, of 7-9 μM and 2.5 μM, respectively, as determined from the data in FIG. 12.
After the addition of sodium cyanoborohydride (6 mg, 100 nmol), the reaction mixture was stirred for an additional 2 hours, washed with water (2×0.5 mL) and dried on a rotavap.

The test system of assay [3] is Trametes versicolor laccase. Put plainly: Laccase assay: ABTS^−2 oxidation followed by absorbance change at 436 nm, with and without NaF. In kind it is biochemical. The note with it: 1 mM NaF; 5 mM ABTS^−2 in 50 mM Glycine pH 3.0.
Where [4] appears, read: inhibitor of laccase, substrate ABTS^−2, read-out: Kd (dissociation constant of the inhibitor, −Ki at intersection point).

Structures can show the parent of a compound that is named as a salt. Where two headings read alike, the source gives them in different places.

The term Kd denotes the equilibrium constant for the complex coming apart.

For `Oc1c(O)c(Cl)c(Cl)c(Cl)c1Cl` [Tetrachloro-o-quinol], the “amplitude of the laccase 600 nm absorbance peak on binding” value in assay [1] was “decrease”. The Kd in assay [2] (setting [4]) was in the range of 7 to 9 µM. In assay [2] (substrate ABTS^−2), the “activity as laccase inhibitor” value is “effective inhibitor”. `[F-].[Na+]` [NaF]: the “inhibition of laccase activity” value in assay [3] was found to be 95%. Take `Oc1c(O)c(F)c(F)c(F)c1F` [tetrafluoro-o-quinol]: the Kd in assay [2] (setting [4]) stood at 2.5 µM. `CCn1c(=NN=c2sc3cc(S(=O)(=O)O)ccc3n2CC)sc2cc(S(=O)(=O)O)ccc21` [ABTS^−2, 2,2′-azino-bis(3-ethylbenz-thiazoline-6-sulfonate) diammonium salt, reference compound]: the Kd in assay [2] (substrate binding to laccase, read-out: dissociation constant, Kd of the laccase substrate) lay in the range of 120 to 240 µM.

Take `Oc1c(Cl)c(Cl)c(O)c(Cl)c1Cl` [tetrachloro-p-quinol, reference compound]: in assay [2] (substrate ABTS^−2), the “activity as laccase inhibitor” value is “inactive as an inhibitor”.
